Source: patent US20120295893A1, “COMPOSITIONS AND METHODS OF COUNTERACTING RESIDUAL SEDATIVE EFFECTS OF SLEEP/ HYPNOTIC DRUGS” (COERULEUS LTD., priority 2009, published 2012)
Where “and” joins values, the source holds several entries; their conditions need not be identical. Equal entries are not always repeated.

Experiments:
[1] = tested on: sleep/hypnotic effect of zolpidem or brotizolam; assay: Clinical study: immediate Word Recall Test (iWRT); conditions: Baseline sleep (after hypnotic, before oral spray)
[2] = Clinical study: vital signs and safety assessments; conditions: Baseline sleep (after hypnotic, before oral spray); for Pulse rate: 10 subjects per hypnotic
[3] = tested on: sleep/hypnotic effect of zolpidem or brotizolam; assay: Clinical study: digit symbol substitution test (DSST); conditions: Baseline sleep (after hypnotic, before oral spray)
[4] = tested on: sleep/hypnotic effect of zolpidem or brotizolam; assay: Clinical study: Profile Of Mood States (POMS) Brief form; conditions: Baseline sleep (after hypnotic, before oral spray)
[5] = tested on: sleep/hypnotic effect of zolpidem or brotizolam; assay: Clinical study: Visual Analogue Scale (sleepiness/vigilance, ability to focus, effectiveness); conditions: Baseline sleep (after hypnotic, before oral spray)
[6] = tested on: Sprague-Dawley™ (SD) rats; assay: Preliminary phase: induction of 'Sleep' by IV diazepam (dose finding); conditions: for mortality after diazepam injection: FDC = Found Dead in the Cage
[7] = tested on: diazepam-induced sedative-hypnotic effects; assay: Main phase: Sleeping Time (regaining of Righting Reflex) after diazepam induction; format: in vivo, rat; conditions: IV, two administrations at 2 min interval after diazepam
Experimental: (§1) The main phase consisted of 4 groups of n=8 male and female SD rats/group. Induction of sedative-hypnotic effects, as measured by Sleeping Time and locomotor activity, was carried out by two intravenous injections of diazepam at an interval of approximately 2 minutes. The Test, Reference and Control Items were administered twice at interval of 2 minutes as well, about 5 minutes after the second dose of diazepam. Both Test Items FLUMUP-F22 (F22, Table 26 below) and FLUMUP-F26 (F26, Table 26 below) were administered by the sublingual route at a constant dose volume of 0.1 ml/animal per administration. An additional group was administered with FLUMUP Placebo under identical experimental conditions and served as a Control group. A fourth group was subjected to IV injection of the Reference Item under identical experimental conditions. Animals were placed in the activity cage immediately following arousal from ‘Sleep’ or 10 minutes post the second dose of the respective treatment if arousal was not evident.
Males were injected with an initial dose level of 15 mg/kg and approximately 2 minutes later an addition of 5 mg/kg was administered. […]
Sleeping time was determined for all animals.
Evaluation was based on the relative recorded changes in the measured Sleeping Time and locomotor activity, obtained from the Test & Reference Items-treated animals vs. those of the Control Item group. […]

[8] = tested on: diazepam-induced sedative-hypnotic effects; assay: Main phase: locomotor activity in activity cage after diazepam induction; format: in vivo, rat
Experimental: as §1
Males were injected with an initial dose level of 15 mg/kg and approximately 2 minutes later an addition of 5 mg/kg was administered. Females were injected with an initial dose level of 20 mg/kg and approximately 2 minutes later an addition of 5 mg/kg.
(i) The Test and Control Items were administered by the sublingual route twice at an interval of approximately 2 minutes about 5 minutes post the second injection of diazepam. (ii) The Reference Item flumazenil USP was injected twice intravenously at an interval of approximately 2 minutes about 5 minutes post the second injection of diazepam. The Test, Reference and Control Items were administered at a constant dose volume of 0.1 ml/animal per administration over approximately 15 seconds.
Each rat was placed in the center of a special designed commercial activity cage, measuring 40×40×46 cm (TruScan Photo Beam Activity System-Coulbourn Instruments, Allentown, Pa., USA) for a duration of 15 minutes.
Evaluation was based on the relative recorded changes in the measured Sleeping Time and locomotor activity, obtained from the Test & Reference Items-treated animals vs. those of the Control Item group. Data analysis of all measurable parameters was performed by the use of the following methods in order to determine significance of treatment effects: Software: GraphPad Instat®—Version 3.02 (Statistical Method: 1-Way ANOVA; Dunnett Multiple Comparisons Test for locomotor activity parameters; Kruskal-Wallis Test for Sleeping Time data) Microsoft” Excel 2000.

[9] = in vivo, po; cited from earlier work

| SMILES | iWRT [1] | Diastolic BP [2] | Systolic BP [2] | Pulse rate [2] | DSST [3] | POMS- fatigue [4] | POMS-Alertness [4] | Effectiveness [5] | Focus ability [5] | Vigilance [5] | further results |
| --- | --- | --- | --- | --- | --- | --- | --- | --- | --- | --- | --- |
| Cc1nnc2n1-c1sc(Br)cc1C(c1ccccc1Cl)=NC2 [Brotizolam] | 7.6 ± 1.3 | 69.0 ± 2.8 | 116.9 ± 4.8 | 69.8 ± 1.8 | 76.3 ± 7.7 | 7.2 ± 1.2 | 4.3 ± 1.0 | 2.3 ± 0.3 | 2.4 ± 0.4 | 2.3 ± 0.4 |  |
| CN1C(=O)CN=C(c2ccccc2)c2cc(Cl)ccc21 [Diazepam] |  |  |  |  |  |  |  |  |  |  | additional duration of 'Sleep' after supplement dose ([6]; female rat, 20 mg/kg then supplement 5 mg/kg IV): 1180 s; mortality after diazepam injection ([6]; female rat, single dose 25 mg/kg IV, 25 mg/kg): died immediately following injection and FDC; mortality after diazepam injection ([6]; female rat, single dose 25 mg/kg IV, listed as diazepam, 25 mg/kg): death; duration of induced 'Sleep' ([6]; female rats, diazepam 20 mg/kg IV, individual animals): 240 s and 180 s; additional duration of 'Sleep' after supplement dose ([6]; male rat, 15 mg/kg then supplement 5 mg/kg IV): 850 s; duration of induced 'Sleep' ([6]; male rat, diazepam 10 mg/kg IV, single animal): 46 s; duration of induced 'Sleep' ([6]; male rat, diazepam 15 mg/kg IV, single animal): 130 s; duration of induced 'Sleep' ([6]; male rat, diazepam 20 mg/kg IV, single animal): 1700 s; mortality after diazepam injection ([6]; male rat, single dose 20 mg/kg IV, 20 mg/kg): died immediately following injection and FDC; mortality after diazepam injection ([6]; male rat, single dose 20 mg/kg IV, listed as diazepam, 20 mg/kg): death |
| CCOC(=O)c1ncn2c1CN(C)C(=O)c1cc(F)ccc1-2 [Reference Item] |  |  |  |  |  |  |  |  |  |  | regaining of Righting Reflex (Sleeping Time) [7]: regained their righting reflex very shortly following injection; area of the cage where rats moved or stayed ([8]; Area 1 peripheries (normal behavior), Area 2 central, FIG. 11): stayed in the central area of the cage; locomotor activity ([8]; after regaining righting reflex, males and females): very low and similar to that of the control animals; total distance versus Control group ([8]; female rats, 15 min session, diazepam 20+5 mg/kg IV): No statistical significant difference; mean group time spent in the extent of the activity cage versus controls ([8]; male rats): relatively higher; total distance, mean group values versus Control group ([8]; male rats, 15 min session, diazepam 15+5 mg/kg IV): only one out of the four males exhibited higher values |
| Cc1ccc(-c2nc3ccc(C)cn3c2CC(=O)N(C)C)cc1 [Zolpidem] | 4.1 ± 0.3 | 71.4 ± 1.9 | 119.5 ± 4.0 | 77.5 ± 3.5 | 62.5 ± 3.6 | 9.3 ± 1.4 | 1.9 ± 1.0 | 1.5 ± 0.4 | 1.5 ± 0.4 | 1.4 ± 0.3 | oral bioavailability [9]: 70% |
